This passage reports inhibition and IC50 results from patent US10266497B2 (ABIDE THERAPEUTICS, INC., priority 2017, dated 2019).

Experiment [1] concerns the target T1, FAAH (Mus musculus, UniProt O08914).
T1 sequence (O08914 1-579): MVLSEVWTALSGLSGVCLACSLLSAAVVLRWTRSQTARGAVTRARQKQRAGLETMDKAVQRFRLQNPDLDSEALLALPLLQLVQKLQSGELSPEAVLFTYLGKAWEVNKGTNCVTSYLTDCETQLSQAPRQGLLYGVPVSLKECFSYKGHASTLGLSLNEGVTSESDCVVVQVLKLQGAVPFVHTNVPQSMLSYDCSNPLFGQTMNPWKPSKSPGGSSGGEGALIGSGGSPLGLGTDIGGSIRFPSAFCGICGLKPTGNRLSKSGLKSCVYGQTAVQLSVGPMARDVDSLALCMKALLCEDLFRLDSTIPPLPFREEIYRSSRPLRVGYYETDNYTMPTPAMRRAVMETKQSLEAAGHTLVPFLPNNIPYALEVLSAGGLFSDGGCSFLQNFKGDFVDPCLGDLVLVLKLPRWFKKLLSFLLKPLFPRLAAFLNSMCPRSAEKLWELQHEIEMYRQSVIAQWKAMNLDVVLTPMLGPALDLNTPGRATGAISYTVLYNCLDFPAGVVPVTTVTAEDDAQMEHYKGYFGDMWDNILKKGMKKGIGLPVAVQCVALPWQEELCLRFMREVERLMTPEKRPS
The experiment can be described thus: Mouse brain proteomes from inhibitor treated mice (oral gavage, sacrificed 4 h after administration), FAAH. It is filed as in vivo. Set-up: mouse brain membrane fraction for mouse assays; from tissue; host or cells: mouse brain (membrane fraction in vitro; brain proteomes of treated C57Bl/6J mice in vivo). The conditions noted are these: 5 mg/kg oral gavage, C57Bl/6J mice, brain proteome 4 h after administration, read-out: FAAH % inh. 5 mg/kg (mouse).

The target of experiment [2] is T2, MAGL (Mus musculus, UniProt O35678).
T2 sequence (O35678 1-303): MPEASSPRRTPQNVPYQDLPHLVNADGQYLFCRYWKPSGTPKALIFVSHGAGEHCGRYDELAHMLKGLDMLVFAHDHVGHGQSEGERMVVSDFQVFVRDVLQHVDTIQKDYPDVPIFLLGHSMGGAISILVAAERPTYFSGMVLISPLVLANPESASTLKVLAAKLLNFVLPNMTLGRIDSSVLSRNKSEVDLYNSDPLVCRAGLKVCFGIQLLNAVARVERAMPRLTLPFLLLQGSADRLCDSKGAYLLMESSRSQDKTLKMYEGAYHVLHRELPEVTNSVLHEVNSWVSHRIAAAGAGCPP
The experiment is described as follows: In vitro competitive activity-based protein profiling, MAGL, mouse. To be noted: read-out: MAGL % inh. 1 μM (mouse).

Experiment [3] concerns the target T3, FAAH (Homo sapiens, UniProt O00519).
T3 sequence (O00519 1-579): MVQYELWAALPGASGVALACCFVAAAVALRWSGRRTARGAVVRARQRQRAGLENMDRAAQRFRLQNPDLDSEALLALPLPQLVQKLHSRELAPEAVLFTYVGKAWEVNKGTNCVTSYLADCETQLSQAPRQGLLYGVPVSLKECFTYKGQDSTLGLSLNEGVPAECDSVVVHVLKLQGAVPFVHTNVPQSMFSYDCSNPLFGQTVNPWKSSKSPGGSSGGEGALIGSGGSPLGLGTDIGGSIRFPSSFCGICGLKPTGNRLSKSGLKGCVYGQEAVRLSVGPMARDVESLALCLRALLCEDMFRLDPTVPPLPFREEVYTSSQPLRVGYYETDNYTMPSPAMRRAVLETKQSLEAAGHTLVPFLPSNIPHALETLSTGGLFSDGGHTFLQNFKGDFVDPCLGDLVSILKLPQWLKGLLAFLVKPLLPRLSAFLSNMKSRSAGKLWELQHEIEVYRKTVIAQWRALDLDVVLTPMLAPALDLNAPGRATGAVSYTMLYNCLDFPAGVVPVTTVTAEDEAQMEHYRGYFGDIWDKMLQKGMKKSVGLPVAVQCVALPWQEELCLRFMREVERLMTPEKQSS
The experiment is described as follows: In vitro competitive activity-based protein profiling, FAAH, human. To be noted: for inhibition at 1 µM: read-out: FAAH % inh. 1 μM (human).

Experiment [4] deals with T2, MAGL. The experiment can be described thus: Mouse brain proteomes from inhibitor treated mice (oral gavage, sacrificed 4 h after administration). The class given is in vivo. Details: mouse brain membrane fraction for mouse assays; from tissue; host or cells: mouse brain (membrane fraction in vitro; brain proteomes of treated C57Bl/6J mice in vivo). The conditions noted are these: 5 mg/kg oral gavage, brain proteome 4 h after administration, read-out: MAGL % inh. 5 mg/kg (mouse).

The target in experiment [5] is T1, FAAH. The experiment is described as follows: In vitro competitive activity-based protein profiling, FAAH, mouse. The conditions noted are these: read-out: FAAH % inh. 1 μM (mouse).
The target in experiment [6] is T4, MAGL (Homo sapiens, UniProt Q99685).
T4 sequence (Q99685 1-303): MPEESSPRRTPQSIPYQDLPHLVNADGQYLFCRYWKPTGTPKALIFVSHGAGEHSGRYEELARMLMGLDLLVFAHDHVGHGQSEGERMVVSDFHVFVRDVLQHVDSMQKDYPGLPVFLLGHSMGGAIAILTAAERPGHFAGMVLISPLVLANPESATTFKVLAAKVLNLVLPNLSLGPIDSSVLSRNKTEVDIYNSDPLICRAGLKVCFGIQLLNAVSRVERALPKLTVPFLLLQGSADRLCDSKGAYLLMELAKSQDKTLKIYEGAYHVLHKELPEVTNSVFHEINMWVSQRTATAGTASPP
The experiment can be described thus: In vitro competitive activity-based protein profiling, MAGL, human. To be noted: read-out: MAGL % inh. 1 μM (human).

Experiment [7] deals with T1, FAAH. The experiment is described as follows: Mouse brain proteomes from inhibitor treated mice (oral gavage, sacrificed 4 h after administration), FAAH. Set-up: mouse brain membrane fraction for mouse assays; from tissue; host or cells: mouse brain (membrane fraction in vitro; brain proteomes of treated C57Bl/6J mice in vivo). The conditions noted are these: 5 mg/kg oral gavage, brain proteome 4 h after administration, read-out: FAAH % inh. 5 mg/kg (mouse). The class given is in vivo.

SMILES strings stand for the structures. Where two headings read alike, the source gives them in different places. A value given as a limit tells only on which side of the number the result lay.

As to `O=C(O)c1ccn(C(=O)N2CCN(Cc3cccc(C(F)(F)F)c3N3CCOCC3)CC2)n1` [Example 453, 1-(4-(2-morpholino-3-(trifluoromethyl)benzyl)piperazine-1-carbonyl)-1H-pyrazole-3-carboxylic acid], the inhibition at 5 mg/kg in experiment [1] and in experiment [4] (C57Bl/6J mice) was 0 to 25% each time. In addition, the results for the inhibition at 1 µM in experiment [2] and in experiment [5] were > 75% and 0 to 25%, respectively. Further, the IC50 (in general, the concentration that gives 50% inhibition) in experiment [3] fell in the range of 1000 to 10000 nM.

With `CN(Cc1ccc(C(F)(F)F)cc1N1CCCC1)C1(C)CCN(C(=O)n2ccc(C(=O)O)n2)CC1` [Example 456, 1-(4-methyl-4-(methyl(2-(pyrrolidin-1-yl)-4-(trifluoromethyl)benzyl)amino)piper-idine-1-carbonyl)-1H-pyrazole-3-carboxylic acid], the inhibition at 5 mg/kg in experiment [1] and in experiment [4] (C57Bl/6J mice) was 0 to 25% throughout. Further, the inhibition at 1 µM in experiment [2] was > 75%; in experiment [6], > 75%; in experiment [3] it was 0 to 25%; in experiment [5], 0 to 25%.

For the molecule `O=C(O)c1ccn(C(=O)N2CCC(Oc3ccc(Cl)cc3N3CCCC3)CC2)n1` [Example 11, 1-(4-(4-Chloro-2-(pyrrolidin-1-yl)phenoxy)piperidine-1-carbonyl)-1H-pyrazole-3-carboxylic Acid], the inhibition at 5 mg/kg in experiment [7] and in experiment [4] was 0 to 25% each time. The inhibition at 1 µM in experiment [2] is > 75%; in experiment [6], > 75%; in experiment [3] it was 0 to 25%; in experiment [5], 0 to 25%.

Take `O=C(O)c1ccn(C(=O)N2CCN(Cc3ccc(C(F)(F)F)c(N4CC5COCC5C4)c3)CC2)n1` (stereo not shown) [Example 454, 1-(4-(3-(tetrahydro-1H-furo[3,4-c]pyrrol-5(3H)-yl)-4-(trifluoromethyl)benzyl)piperazine-1-carbonyl)-1H-pyrazole-3-carboxylic acid]: the inhibition at 5 mg/kg in experiment [1] and in experiment [4] (C57Bl/6J mice) was 0 to 25% throughout. Besides, the inhibition at 1 µM is > 75% in experiment [2], > 75% in experiment [6], 0 to 25% in experiment [3] and 0 to 25% in experiment [5].

On to `O=C(O)c1ccn(C(=O)N2CCN(Cc3cccc(Cl)c3N3C4CCC3COC4)CC2)n1` [Example 212, 1-(4-(2-(3-oxa-8-azabicyclo[3.2.1]octan-8-yl)-3-chlorobenzyl)piper-azine-1-carbonyl)-1H-pyrazole-3-carboxylic acid], for which the inhibition at 5 mg/kg in experiment [7] and in experiment [4] was 0 to 25% each time. Moreover, the inhibition at 1 µM was > 75% in experiment [2], > 75% in experiment [6], 0 to 25% in experiment [3] and 0 to 25% in experiment [5].

With `O=C(O)c1ccn(C(=O)N2CC3CN(Cc4cc(Cl)cc(C(F)(F)F)c4)CC3C2)n1` (stereo not shown) [Example 124, 1-(5-(3-chloro-5-(trifluoromethyl)benzyl)octahydro-pyrrolo[3,4-c]pyrrole-2-carbonyl)-1H-pyrazole-3-carboxylic acid], the inhibition at 5 mg/kg in experiment [7] fell in the range of 25 to 50%; in experiment [4] it was 0 to 25%. The inhibition at 1 µM in experiment [2] is > 75%; in experiment [6], > 75%; in experiment [3], 50 to 75%; in experiment [5], > 75%. The molecule also gave an IC50 in experiment [3] of 100 to 1000 nM.

Consider `Cc1c(CN2CCN(C(=O)n3ccc(C(=O)O)n3)CC2)[nH]c2ccc(Cl)cc12` [Example 188, 1-(4-((5-chloro-3-methyl-1H-indol-2-yl)methyl)piperazine-1-carbonyl)-1H-pyrazole-3-carboxylic acid], for which the inhibition at 5 mg/kg in experiment [7] and in experiment [4] was 0 to 25% in each case. Moreover, the inhibition at 1 µM is > 75% in experiment [2], > 75% in experiment [6], 0 to 25% in experiment [3] and 0 to 25% in experiment [5].

As to `O=C(O)c1ccn(C(=O)N2CCC3(CCN(Cc4cc(Cl)ccc4C(F)(F)F)C3)CC2)n1` [Example 43, 1-(2-(5-chloro-2-(trifluoromethyl)benzyl)-2,8-diazaspiro[4.5]decane-8-carbonyl)-1H-pyrazole-3-carboxylic acid], the inhibition at 5 mg/kg in experiment [7] and in experiment [4] was 0 to 25% throughout. Besides, the inhibition at 1 µM is > 75% in experiment [2], > 75% in experiment [6], 50 to 75% in experiment [3] and > 75% in experiment [5]. Also, the IC50 in experiment [3] was in the range of 1000 to 10000 nM.

For the molecule `O=C(O)c1ccn(C(=O)N2CCN(Cc3ccc(C(F)(F)F)cc3N3CCC(O)CC3)CC2)n1` [Example 120, 1-(4-(2-(4-hydroxypiperidin-1-yl)-4-(trifluoromethyl)benzyl)piperazine-1-carbonyl)-1H-pyrazole-3-carboxylic acid], the inhibition at 5 mg/kg in experiment [7] and in experiment [4] was 0 to 25% in each case. Moreover, the inhibition at 1 µM is > 75% in experiment [2], > 75% in experiment [6], 0 to 25% in experiment [3] and 0 to 25% in experiment [5].

On to `C[C@@H]1CCCN1c1cc(C(F)(F)F)ccc1CN1CCN(C(=O)n2ccc(C(=O)O)n2)CC1` [Example 95, (R)-1-(4-(2-(2-methylpyrrolidin-1-yl)-4-(trifluoromethyl)benzyl)piperazine-1-carbonyl)-1H-pyrazole-3-carboxylic acid], for which the inhibition at 5 mg/kg in experiment [7] and in experiment [4] was 0 to 25% in each case. Besides, the inhibition at 1 µM was > 75% in experiment [2], > 75% in experiment [6], 0 to 25% in experiment [3] and 0 to 25% in experiment [5].
